SMILES strings stand for the structures. Like-named read-outs stand apart in the source and are kept apart here.

The test deals with hQC (Homo sapiens, UniProt Q16769). Nature of the test: Inhibitor assay for glutaminyl cyclase activity (fluorometric, H-Gln-βNA / H-Gln-AMC). Type of test: biochemical. An outline of the steps: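 Coupled fluorometric assay at 30 °C with pyroglutamyl aminopeptidase, in Tris/HCl pH 8.0 with EDTA, substrate H-Gln-βNA (0.2 mM; ex/em 320/410 nm) or H-Gln-AMC (ex/em 380/460 nm), initiated by QC. Screening: 4 mM inhibitor, substrate at 1 KM; Ki from progress curves fitted to competitive inhibition.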

[1] abbreviates: compound from preparative synthesis, purified, read-out: IC50 hQC.

Sequence of hQC (Q16769 29-361): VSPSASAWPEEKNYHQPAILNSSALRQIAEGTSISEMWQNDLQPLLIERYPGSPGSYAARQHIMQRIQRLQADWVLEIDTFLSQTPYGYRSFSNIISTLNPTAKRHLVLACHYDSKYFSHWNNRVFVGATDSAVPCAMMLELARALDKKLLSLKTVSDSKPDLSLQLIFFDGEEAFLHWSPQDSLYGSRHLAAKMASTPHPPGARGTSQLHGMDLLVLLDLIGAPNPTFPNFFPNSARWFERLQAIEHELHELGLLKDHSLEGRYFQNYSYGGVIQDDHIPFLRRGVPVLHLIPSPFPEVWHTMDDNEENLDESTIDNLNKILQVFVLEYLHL

By IC50 is commonly meant the midpoint of a concentration-inhibition curve. For `O=C(O)CC1=C(O)C(=O)N(c2ccc3[nH]cnc3c2)C1c1cccc2cccnc12` (centres unmarked) [Compound 354, [1-(1H-Benzoimidazol-5-yl)-4-hydroxy-5-oxo-2-quinolin-8-yl-2,5-dihydro-1H-pyrrol-3-yl]-acetic acid], the IC50 (read-out: IC50) was determined as 8.77 µM.
On the same count and under the same terms, next, `CCCC(=O)C1=C(O)C(=O)N(c2ccc3[nH]cnc3c2)C1c1ccc[nH]1` (centres unmarked) [Compound 355, 1-(1H-Benzoimidazol-5-yl)-3-butyryl-4-hydroxy-1,2-dihydro-1′H-[2,2′]bipyrrolyl-5-one]: 8.68 µM; `CC1=C(O)C(=O)N(c2ccc3[nH]cnc3c2)C1c1coc2ccccc2c1=O` (centres unmarked) [Compound 356, 1-(1H-Benzoimidazol-5-yl)-3-hydroxy-4-methyl-5-(4-oxo-4H-chromen-3-yl)-1,5-dihydro-pyrrol-2-one]: 3.91 µM.
Take `O=C1C(O)=C(c2c[nH]c3ccccc23)C(c2coc3ccccc3c2=O)N1c1ccc2[nH]cnc2c1` (centres unmarked) [Compound 357, 1-(1H-Benzoimidazol-5-yl)-3-hydroxy-4-(1H-indol-3-yl)-5-(4-oxo-4H-chromen-3-yl)-1,5-dihydro-pyrrol-2-one]: the half-inhibitory concentration (IC50) (read-out: IC50) was 4.72 µM.
With `O=C(O)CC1=C(O)C(=O)N(c2ccc3[nH]cnc3c2)C1c1c(F)ccc(Cl)c1F` (centres unmarked) [Compound 358, [1-(1H-Benzoimidazol-5-yl)-2-(3-chloro-2,6-difluoro-phenyl)-4-hydroxy-5-oxo-2,5-dihydro-1H-pyrrol-3-yl]-acetic acid], for the setting “read-out: IC50”, the IC50 turned out to be 4.54 µM.
Consider `CCCC(=O)C1=C(O)C(=O)N(c2ccc3[nH]cnc3c2)C1c1c[nH]cn1` (centres unmarked) [Compound 359, 1-(1H-Benzoimidazol-5-yl)-4-butyryl-3-hydroxy-5-(1H-imidazol-4-yl)-1,5-dihydro-pyrrol-2-one], for which the concentration for half-maximal inhibition (IC50) (read-out: IC50) was 7.78 µM.
Regarding `CC(=O)C1=C(O)C(=O)N(c2ccc3[nH]cnc3c2)C1c1cnc2ccccc2c1` (centres unmarked) [Compound 360, 4-Acetyl-1-(1H-benzoimidazol-5-yl)-3-hydroxy-5-quinolin-3-yl-1,5-dihydro-pyrrol-2-one], where the note is “read-out: IC50”, the half-maximal inhibitory concentration (IC50) was 0.04 µM.
Regarding `O=C(O)CCC1C(C(=O)C2CCCCC2)=C(O)C(=O)N1c1ccc2[nH]cnc2c1` (centres unmarked) [Compound 361, 3-[1-(1H-Benzoimidazol-5-yl)-3-cyclohexanecarbonyl-4-hydroxy-5-oxo-2,5-dihydro-1H-pyrrol-2-yl]-propionic acid], the half-inhibitory concentration (IC50) (read-out: IC50) worked out at 8.95 µM.
`CCCC(=O)C1=C(O)C(=O)N(c2ccc3[nH]cnc3c2)C1` [Compound 362, 1-(1H-Benzoimidazol-5-yl)-4-butyryl-3-hydroxy-1,5-dihydro-pyrrol-2-one]: the IC50 (read-out: IC50) turned out to be 4.72 µM.
In the case of `O=C1C(O)=C(c2ccc(O)cc2)C(c2cccc(F)c2)N1c1ccc2[nH]cnc2c1` (centres unmarked) [Compound 363, 1-(1H-Benzoimidazol-5-yl)-5-(3-fluoro-phenyl)-3-hydroxy-4-(4-hydroxy-phenyl)-1,5-dihydro-pyrrol-2-one], the half-maximal inhibitory concentration (IC50) (read-out: IC50) is 0.67 µM.
For the compound `O=C1C(O)=C(c2ccc(O)cc2)C(c2cccc3cccnc23)N1c1ccc2[nH]cnc2c1` (centres unmarked) [Compound 364, 1-(1H-Benzoimidazol-5-yl)-3-hydroxy-4-(4-hydroxy-phenyl)-5-quinolin-8-yl-1,5-dihydro-pyrrol-2-one], the IC50 (read-out: IC50) came to 5.08 µM.
As to `CC(C)C1=C(O)C(=O)N(c2ccc3[nH]cnc3c2)C1c1c(F)ccc(Cl)c1F` (centres unmarked) [Compound 365, 1-(1H-Benzoimidazol-5-yl)-5-(3-chloro-2,6-difluoro-phenyl)-3-hydroxy-4-isopropyl-1,5-dihydro-pyrrol-2-one], the IC50 (read-out: IC50) was 8.05 µM.
The same measure, in the same setting: next, `CC(=O)C1=C(O)C(=O)N(c2ccc3[nH]cnc3c2)C1c1ccco1` (centres unmarked) [Compound 366, 4-Acetyl-1-(1H-benzoimidazol-5-yl)-5-furan-2-yl-3-hydroxy-1,5-dihydro-pyrrol-2-one]: 2.38 µM; `CC(=O)C1=C(O)C(=O)N(c2ccc3[nH]cnc3c2)C1c1ccsc1` (centres unmarked) [Compound 367, 4-Acetyl-1-(1H-benzoimidazol-5-yl)-3-hydroxy-5-thiophen-3-yl-1,5-dihydro-pyrrol-2-one]: 0.76 µM.
Turning to `CCCC(=O)C1=C(O)C(=O)N(c2ccc3[nH]cnc3c2)C1c1ccc2cccc(O)c2n1` (centres unmarked) [Compound 368, 1-(1H-Benzoimidazol-5-yl)-4-butyryl-3-hydroxy-5-(8-hydroxy-quinolin-2-yl)-1,5-dihydro-pyrrol-2-one], the 50% inhibitory concentration (IC50) (read-out: IC50) was determined as 0.004 µM.
Turning to `O=C(C1=C(O)C(=O)N(c2ccc3[nH]cnc3c2)C1c1ccc(CO)o1)c1cccs1` (centres unmarked) [Compound 369, 1-(1H-Benzoimidazol-5-yl)-3-hydroxy-5-(5-hydroxymethyl-furan-2-yl)-4-(thiophene-2-carbonyl)-1,5-dihydro-pyrrol-2-one], the IC50 (read-out: IC50) was found to be 1.57 µM.
Take `O=C(C1=C(O)C(=O)N(c2ccc3[nH]cnc3c2)C1c1cccc(F)c1)C1CC1` (centres unmarked) [Compound 370, 1-(1H-Benzoimidazol-5-yl)-4-cyclopropanecarbonyl-5-(3-fluoro-phenyl)-3-hydroxy-1,5-dihydro-pyrrol-2-one]: for the setting “read-out: IC50”, the IC50 is 7.69 µM.
Turning to `CC(C)C1=C(O)C(=O)N(c2ccc3[nH]cnc3c2)C1c1ccco1` (centres unmarked) [Compound 371, 1-(1H-Benzoimidazol-5-yl)-5-furan-2-yl-3-hydroxy-4-isopropyl-1,5-dihydro-pyrrol-2-one], for the setting “read-out: IC50”, the concentration for half-maximal inhibition (IC50) turned out to be 5.53 µM.
Take `O=C(C1=C(O)C(=O)N(c2ccc3[nH]cnc3c2)C1c1ccc(Cl)c(Cl)c1)C1CCCCC1` (centres unmarked) [Compound 372, 1-(1H-Benzoimidazol-5-yl)-4-cyclohexanecarbonyl-5-(3,4-dichloro-phenyl)-3-hydroxy-1,5-dihydro-pyrrol-2-one]: the IC50 came out at 0.0133 µM under setting [1] and 0.4 µM (read-out: IC50).
For `O=C1C(O)=C(c2ccccc2)C(c2cc3ccccc3nc2Cl)N1c1ccc2[nH]cnc2c1` (centres unmarked) [Compound 373, 1-(1H-Benzoimidazol-5-yl)-5-(2-chloro-quinolin-3-yl)-3-hydroxy-4-phenyl-1,5-dihydro-pyrrol-2-one], the IC50 (read-out: IC50) was 4.09 µM.
The same measure, in the same setting: to `O=C(O)c1ccc(C2C(C(=O)C3CCCCC3)=C(O)C(=O)N2c2ccc3[nH]cnc3c2)o1` (centres unmarked) [Compound 374, 5-[1-(1H-Benzoimidazol-5-yl)-3-cyclohexanecarbonyl-4-hydroxy-5-oxo-2,5-dihydro-1H-pyrrol-2-yl]-furan-2-carboxylic acid] belongs 0.76 µM.
With `CC(=O)C1=C(O)C(=O)N(c2ccc3[nH]cnc3c2)C1C1CC=CCC1` (centres unmarked) [Compound 375, 4-Acetyl-1-(1H-benzoimidazol-5-yl)-5-cyclohex-3-enyl-3-hydroxy-1,5-dihydro-pyrrol-2-one], the IC50 (read-out: IC50) came to 9.58 µM.
Turning to `CC(=O)C1=C(O)C(=O)N(c2ccc3[nH]cnc3c2)C1c1ccc2nsnc2c1` (centres unmarked) [Compound 376, 4-Acetyl-1-(1H-benzoimidazol-5-yl)-5-benzo[c][1,2,5]thiadiazol-5-yl-3-hydroxy-1,5-dihydro-pyrrol-2-one], the half-maximal inhibitory concentration (IC50) under setting [1] was found to be 0.0087 µM and the IC50 (read-out: IC50) worked out at 0.004 µM.
With `CC(C)C1=C(O)C(=O)N(c2ccc3[nH]cnc3c2)C1c1ccc(O)c(Br)c1` (centres unmarked) [Compound 377, 1-(1H-Benzoimidazol-5-yl)-5-(3-bromo-4-hydroxy-phenyl)-3-hydroxy-4-isopropyl-1,5-dihydro-pyrrol-2-one], under “read-out: IC50”, the IC50 came to 1.48 µM.
As to `CCCC(=O)C1=C(O)C(=O)N(c2ccc3[nH]cnc3c2)C1c1cc[nH]n1` (centres unmarked) [Compound 378, 1-(1H-Benzoimidazol-5-yl)-4-butyryl-3-hydroxy-5-(1H-pyrazol-3-yl)-1,5-dihydro-pyrrol-2-one], under “read-out: IC50”, the half-inhibitory concentration (IC50) came out at 4 µM.
With `O=C(C1=C(O)C(=O)N(c2ccc3[nH]cnc3c2)C1c1cc[nH]n1)C1CCCCC1` (centres unmarked) [Compound 379, 1-(1H-Benzoimidazol-5-yl)-4-cyclohexanecarbonyl-3-hydroxy-5-(1H-pyrazol-3-yl)-1,5-dihydro-pyrrol-2-one], the 50% inhibitory concentration (IC50) (read-out: IC50) came to 5.26 µM.
Regarding `CC1=C(O)C(=O)N(c2ccc3[nH]cnc3c2)C1c1ccc2nsnc2c1` (centres unmarked) [Compound 380, 1-(1H-Benzoimidazol-5-yl)-5-benzo[c][1,2,5]thiadiazol-5-yl-3-hydroxy-4-methyl-1,5-dihydro-pyrrol-2-one], under “read-out: IC50”, the half-maximal inhibitory concentration (IC50) turned out to be 1.03 µM.
As to `Cc1cccc(C2C(C(=O)C3CCCCC3)=C(O)C(=O)N2c2ccc3[nH]cnc3c2)n1` (centres unmarked) [Compound 381, 1-(1H-Benzoimidazol-5-yl)-4-cyclohexanecarbonyl-3-hydroxy-5-(6-methyl-pyridin-2-yl)-1,5-dihydro-pyrrol-2-one], for the setting “read-out: IC50”, the IC50 worked out at 1.75 µM.
Same read-out and setting: next, `Cc1ccc2occ(C3C(C(=O)C(C)(C)C)=C(O)C(=O)N3c3ccc4[nH]cnc4c3)c(=O)c2c1` (centres unmarked) [Compound 382, 1-(1H-Benzoimidazol-5-yl)-4-(2,2-dimethyl-propionyl)-3-hydroxy-5-(6-methyl-4-oxo-4H-chromen-3-yl)-1,5-dihydro-pyrrol-2-one]: 4 µM; `CC(C)(C)C(=O)C1=C(O)C(=O)N(c2ccc3[nH]cnc3c2)C1c1cccc(F)c1F` (centres unmarked) [Compound 383, 1-(1H-Benzoimidazol-5-yl)-5-(2,3-difluoro-phenyl)-4-(2,2-dimethyl-propionyl)-3-hydroxy-1,5-dihydro-pyrrol-2-one]: 4.09 µM.
Turning to `Cc1cccc(C2C(c3c[nH]c4ccccc34)=C(O)C(=O)N2c2ccc3[nH]cnc3c2)n1` (centres unmarked) [Compound 385, 1-(1H-Benzoimidazol-5-yl)-3-hydroxy-4-(1H-indol-3-yl)-5-(6-methyl-pyridin-2-yl)-1,5-dihydro-pyrrol-2-one], the half-maximal inhibitory concentration (IC50) (read-out: IC50) is 0.76 µM.
Take `CC1=C(O)C(=O)N(c2ccc3[nH]cnc3c2)C1c1ccccc1F` (centres unmarked) [Compound 386, 1-(1H-Benzoimidazol-5-yl)-5-(2-fluoro-phenyl)-3-hydroxy-4-methyl-1,5-dihydro-pyrrol-2-one]: the IC50 (read-out: IC50) was found to be 1.93 µM.
Same read-out and setting: to `Cc1cc(C2C(C(C)C)=C(O)C(=O)N2c2ccc3[nH]cnc3c2)oc1C` (centres unmarked) [Compound 388, 1-(1H-Benzoimidazol-5-yl)-5-(4,5-dimethyl-furan-2-yl)-3-hydroxy-4-isopropyl-1,5-dihydro-pyrrol-2-one] belongs 3.19 µM.

The values above are taken from patent US8278345B2, “Inhibitors of glutaminyl cyclase” (Probiodrug AG, priority 2006, dated 2012).
